What was measured:
[1] = tested on: zebra finch (Taeniopygia guttata); experiment: Example 2: disruption of ovulation, oviposition and embryo development after injection, zebra finches; assay type: in vivo; conditions: 20 ug injection
Method: Zebra finch (Taeniopygia guttata) pairs obtained from a breeding colony maintained at The University of Georgia were housed in individual cages and provided feed and water ad libidumn. Birds were kept under a 14 hour (h) light (L):10 h dark (D) light schedule. Egg-laying was monitored daily and eggs marked to record sequence order. Females were injected intraperitoneally after the first or second egg of the clutch was laid with one of three treatments: 20 μg of CORT dissolved in 50 μl peanut oil and 10% ethanol (CORT), 20 μg of progesterone dissolved in […] and 10% ethanol (P), or 50 μl of control peanut oil (C). A fourth set of females received no injection treatment (UN). […] The follicle ovulating 5 hours after injection, was laid approximately 36 hours after injection (FIG. 3). Ovulating follicles exposed to treatments were laid as the 3rd or 4th egg in the sequence (3rd egg if treatment was administered on the day the 1st egg was laid and the 4th egg in the sequence if treatment was administered on the day the 2nd egg was laid). Eggs were allowed to incubate in the nest for 8-12 days prior to collection to allow sufficient embryonic development for DNA extraction and molecular sexing analyses. Occasionally these treatments disrupted the oviposition immediately following the injection. Females that delayed oviposition after treatment were excluded from analysis because it was not possible to determine whether the egg collected the following day was from the ovulation event that occurred immediately following injection or from a delayed oviposition of the follicle ovulated the day prior to injection. Females that delayed oviposition were allowed to complete the clutch after which the treatment was repeated during the next clutch. […] Only 1/10 females treated with progesterone laid successfully. For this reason, progesterone treatments were eliminated from further analyses.

female chickens = conditions: at the time of meiotic segregation, Correa et al. 2005; cited from earlier work
[2] = tested on: zebra finches and pigeons; conditions: literature; cited from earlier work

SMILES	eggs with delayed oviposition [1] [eggs]	eggs with no visible development [1] [eggs]	females in which ovulation and oviposition were disrupted [1] [%]	females that laid successfully ([1]; number of treated females)	sex ratio after acute progesterone treatment (female chickens)	sex ratio after testosterone treatment [2]
CC(=O)[C@H]1CC[C@H]2[C@@H]3CCC4=CC(=O)CC[C@]4(C)[C@H]3CC[C@]12C [progesterone]	5	4	90	1/10	induced a sex ratio skew towards females	
C[C@]12CC[C@H]3[C@@H](CCC4=CC(=O)CC[C@@]43C)[C@@H]1CC[C@@H]2O [testosterone]						induced a skew towards males

— patent publication US8889662B2, “Method to alter sex ratios in avian offspring” (University of Georgia Research Foundation, Inc., priority 2009, dated 2014)
